# Assays:
# Pyruvate kinase PKLR [1] = target: T1, Pyruvate kinase PKLR (Homo sapiens, UniProt P30613); assay: Activation of wild type PKR (unknown origin) by cell based assay
# Pyruvate kinase PKLR [2] = target: Pyruvate kinase PKLR (Homo sapiens, UniProt P30613, R532W); assay: Activation of PKR R532W mutant (unknown origin) incubated for 60 mins in presence of ADP, PEP and NADH by Spectraax microplate reader based assay
# Pyruvate kinase PKLR [3] = target: T1, Pyruvate kinase PKLR; assay: Activation of wild type PKR (unknown origin) incubated for 60 mins in presence of ADP, PEP and NADH by Spectraax microplate reader based assay
# Pyruvate kinase PKLR [4] = target: Pyruvate kinase PKLR (Homo sapiens, UniProt P30613, R510Q); assay: Activation of PKR R510Q mutant (unknown origin) incubated for 60 mins in presence of ADP, PEP and NADH by Spectraax microplate reader based assay
# Sequence of Pyruvate kinase PKLR (Homo sapiens, UniProt P30613, R510Q) (P30613 whole entry R510Q): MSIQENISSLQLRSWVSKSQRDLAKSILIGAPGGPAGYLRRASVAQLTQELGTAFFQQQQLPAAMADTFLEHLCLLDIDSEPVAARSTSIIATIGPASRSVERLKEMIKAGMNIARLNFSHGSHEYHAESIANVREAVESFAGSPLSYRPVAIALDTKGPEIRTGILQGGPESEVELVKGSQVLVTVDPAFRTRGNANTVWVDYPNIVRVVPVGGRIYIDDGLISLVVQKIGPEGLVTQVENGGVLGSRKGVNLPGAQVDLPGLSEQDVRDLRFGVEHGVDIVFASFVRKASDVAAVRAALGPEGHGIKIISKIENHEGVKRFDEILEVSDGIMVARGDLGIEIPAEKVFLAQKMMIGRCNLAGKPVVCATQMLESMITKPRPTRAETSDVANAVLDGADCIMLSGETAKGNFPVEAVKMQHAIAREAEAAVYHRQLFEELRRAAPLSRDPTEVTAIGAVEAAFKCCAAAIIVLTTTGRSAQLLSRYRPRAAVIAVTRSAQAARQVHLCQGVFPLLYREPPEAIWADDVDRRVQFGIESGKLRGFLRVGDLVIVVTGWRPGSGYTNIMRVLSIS
# Sequence of Pyruvate kinase PKLR (Homo sapiens, UniProt P30613, R532W) (P30613 whole entry R532W): as the sequence (P30613 whole entry R510Q) above, with Q510R, R532W counted along it
# T1 sequence (P30613 whole entry): as the sequence (P30613 whole entry R510Q) above, with Q510R counted along it
AC50 (Pyruvate kinase PKLR [1]) [nM],AC50 (Pyruvate kinase PKLR [2]) [nM],AC50 (Pyruvate kinase PKLR [3]) [nM],AC50 (Pyruvate kinase PKLR [4]) [nM],Structure (SMILES)
< 100,< 100,< 100,< 100,Nc1nc2c(S(=O)(=O)Nc3ccc(C(=O)N4CCC(O)(CCCC(F)(F)F)CC4)cc3)cccc2s1
< 100,< 100,< 100,< 100,CC(CC1(O)CCN(C(=O)c2ccc(NS(=O)(=O)c3cccc4sc(N)nc34)cc2)CC1)C(F)(F)F (stereo not given)
< 100,< 100,< 100,< 100,CC(C)CC1(O)CCN(C(=O)c2ccc(NS(=O)(=O)c3cccc4sc(N)nc34)cc2)CC1
< 100,< 100,< 100,< 100,Nc1cnc2c(S(=O)(=O)Nc3ccc(C(=O)N4CCC(O)(CCCC(F)(F)F)CC4)cc3)cccc2n1
< 100,< 100,< 100,< 100,O=C(c1ccc(NS(=O)(=O)c2cccc3nccnc23)cc1)N1CCC(O)(CCCC(F)(F)F)CC1
< 100,< 100,< 100,< 100,O=C(c1ccc(NS(=O)(=O)c2cccc3c(O)ncnc23)cc1)N1CCC(O)(CCCC(F)(F)F)CC1

# Continued, molecule first:
Structure (SMILES),AC50 (Pyruvate kinase PKLR [1]) [nM],AC50 (Pyruvate kinase PKLR [2]) [nM],AC50 (Pyruvate kinase PKLR [3]) [nM],AC50 (Pyruvate kinase PKLR [4]) [nM]
CC(C)CC1(O)CCN(C(=O)c2ccc(NS(=O)(=O)c3cccc4ncc(N)nc34)cc2)CC1,< 100,< 100,< 100,< 100
Nc1nc2c(S(=O)(=O)Nc3ccc(C(=O)N4CCC(O)(c5ccccc5Cl)CC4)cc3)cccc2s1,< 100,< 100,< 100,< 100
Cc1cnc2cccc(S(=O)(=O)Nc3ccc(C(=O)N4CCC(O)(CC(C)C)CC4)cc3)c2n1,< 100,< 100,< 100,< 100
O=C(c1ccc(NS(=O)(=O)c2cccc3nccnc23)cc1)N1CCC(O)(CCC=C(F)F)CC1,< 100,< 100,< 100,< 100
Nc1cnc2c(S(=O)(=O)Nc3ccc(C(=O)N4CCC(O)(c5cccc(F)c5F)CC4)cc3)cccc2n1,< 100,< 100,< 100,< 100
CNc1nc2c(S(=O)(=O)Nc3ccc(C(=O)N4CCC(O)(CC(C)C)CC4)cc3)cccc2s1,< 100,< 100,< 100,< 100
Cc1nscc1CC1(O)CCN(C(=O)c2ccc(NS(=O)(=O)c3cccc4nccnc34)cc2)CC1,< 100,< 100,< 100,< 100
Nc1nc2c(S(=O)(=O)Nc3ccc(C(=O)N4CCC(O)(c5cccc(F)c5F)CC4)cc3)cccc2s1,< 100,< 100,< 100,< 100
Cc1nscc1CC1(O)CCN(C(=O)c2ccc(NS(=O)(=O)c3cccc4scnc34)cc2)CC1,< 100,< 100,< 100,< 100
CC(C)CCC1(O)CCN(C(=O)c2ccc(NS(=O)(=O)c3cccc4scnc34)cc2)CC1,< 100,< 100,< 100,< 100
C=C(CC1(O)CCN(C(=O)c2ccc(NS(=O)(=O)c3cccc4scnc34)cc2)CC1)C(F)(F)F,< 100,< 100,< 100,< 100
CC(C)CC1(O)CCN(C(=O)c2ccc(NS(=O)(=O)c3cccc4ccc(N)nc34)cc2)CC1,< 100,< 100,< 100,< 100
CC(CC1(O)CCN(C(=O)c2ccc(NS(=O)(=O)c3cccc4scnc34)cc2)CC1)C(F)(F)F (stereo not given),< 100,< 100,< 100,< 100
CC(C)CC1(O)CCN(C(=O)c2ccc(NS(=O)(=O)c3cccc4nc(N)cnc34)cc2)CC1,< 100,< 100,< 100,< 100
